Experimental data as given in patent publication US20250353891A1 (MEDIMMUNE LIMITED, priority 2022, published 2025).
Starred links: 1 amine or outer side, 2 acyl side, 3 side chain; linkers in the order of their positions; H or OH if unused. Non-standard residues stand in square brackets, D forms with d. Residues, ends and D or L forms follow the SMILES beside them. Groups on a side chain read outwards from the residue. *: point of attachment. C20 diacid = O=C(O)CCCCCCCCCCCCCCCCCCC(=O)*; γGlu = O=C(O)[C@H](CCC(=O)[*:2])N[*:1]; αMeF = C[C@](N)(Cc1ccccc1)C(=O)O; AEEA = NCCOCCOCC(=O)O; Aib = CC(C)(N)C(=O)O

Legend:
[1] = molecular target: human glucagon receptor (hGCGR) (Homo sapiens, UniProt P47871); experiment: cAMP production (HTRF) in CHO cells expressing hGCGR; type: cell-based; set-up: expressed in transfected cells; conditions: Table 6, peptides modified at position 17; cAMP in CHO hGCGR cells; geometric mean; read-out: hGluc-R EC50
Method in brief: (§1)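 Potency values represent EC50 from 4-parameter logistic curves of HTRF % Delta F signal. Receptor-expressing CHO cells (hGCGR 2×10^5 cells/mL, hGLP-1R 1×10^5 cells/mL) were exposed for 30 min at room temperature before two-step cAMP detection.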

[2] = molecular target: human GLP-1 receptor (hGLP-1R) (Homo sapiens, UniProt P43220); experiment: cAMP production (HTRF) in CHO cells expressing hGLP-1R; type: cell-based; set-up: expressed in transfected cells; conditions: for EC50: Table 6, peptides modified at position 17, cAMP in CHO hGLP-1R cells, geometric mean, read-out: hGLP-1R EC50; for % Relative Potency Ratio: Table 6, % GLP-1R activity relative to GLP-1 / % GlucR activity relative to glucagon
Method in brief: as §1

Chain of human glucagon receptor (hGCGR) (P47871 26-477): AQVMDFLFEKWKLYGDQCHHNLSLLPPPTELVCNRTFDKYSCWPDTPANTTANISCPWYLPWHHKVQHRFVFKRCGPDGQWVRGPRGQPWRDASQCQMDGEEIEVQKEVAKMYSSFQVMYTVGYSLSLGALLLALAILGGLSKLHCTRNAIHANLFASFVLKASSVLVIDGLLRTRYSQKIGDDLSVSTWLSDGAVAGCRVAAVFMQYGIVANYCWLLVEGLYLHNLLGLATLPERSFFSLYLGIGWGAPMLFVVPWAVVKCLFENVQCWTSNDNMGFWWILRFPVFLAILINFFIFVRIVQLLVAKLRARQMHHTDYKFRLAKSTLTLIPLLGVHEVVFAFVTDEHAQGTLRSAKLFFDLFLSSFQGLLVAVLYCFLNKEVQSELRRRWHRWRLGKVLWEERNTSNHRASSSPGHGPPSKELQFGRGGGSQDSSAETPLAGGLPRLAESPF
Chain of human GLP-1 receptor (hGLP-1R) (P43220 24-463): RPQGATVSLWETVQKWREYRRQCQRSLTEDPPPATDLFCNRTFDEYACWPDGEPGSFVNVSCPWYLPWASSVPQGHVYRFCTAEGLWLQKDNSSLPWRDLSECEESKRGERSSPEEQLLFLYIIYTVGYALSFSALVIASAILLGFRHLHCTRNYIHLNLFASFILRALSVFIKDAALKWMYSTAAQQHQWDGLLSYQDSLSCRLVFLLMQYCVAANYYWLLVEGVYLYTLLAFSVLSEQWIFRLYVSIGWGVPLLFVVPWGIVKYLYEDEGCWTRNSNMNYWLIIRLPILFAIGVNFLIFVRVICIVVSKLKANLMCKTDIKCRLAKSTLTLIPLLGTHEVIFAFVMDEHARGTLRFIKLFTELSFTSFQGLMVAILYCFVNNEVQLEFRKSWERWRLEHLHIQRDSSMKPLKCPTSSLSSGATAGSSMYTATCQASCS

| EC50 [1] [nM] | EC50 [2] [nM] | % Relative Potency Ratio [2] | Compound |
| --- | --- | --- | --- |
| 0.162 | 0.17 | 1.9 | CC(C)C[C@H](NC(=O)[C@H](Cc1c[nH]c2ccccc12)NC(=O)[C@H](CCCNC(=N)N)NC(=O)[C@@H](NC(=O)[C@H](Cc1ccccc1)NC(=O)[C@H](CC(=O)O)NC(=O)[C@H](CCC(N)=O)NC(=O)[C@H](C)NC(=O)[C@H](CCCNC(=N)N)NC(=O)[C@H](CCCCNC(=O)COCCOCCNC(=O)COCCOCCNC(=O)CC[C@H](NC(=O)CCCCCCCCCCCCCCCCCCC(=O)O)C(=O)O)NC(=O)[C@H](CCCCN)NC(=O)[C@H](CC(=O)O)NC(=O)[C@H](CC(C)C)NC(=O)[C@](C)(Cc1ccccc1)NC(=O)[C@H](CCCCN)NC(=O)[C@H](CO)NC(=O)[C@@H](NC(=O)[C@H](CC(=O)O)NC(=O)[C@H](CO)NC(=O)[C@@H](NC(=O)[C@H](Cc1ccccc1)NC(=O)[C@@H](NC(=O)CNC(=O)[C@H](CCC(N)=O)NC(=O)C(C)(C)NC(=O)[C@@H](N)Cc1c[nH]cn1)[C@@H](C)O)[C@@H](C)O)C(C)C)C(C)C)C(=O)N[C@@H](CC(C)C)C(=O)N[C@@H](CCC(=O)O)C(=O)NC(C)(C)C(=O)NCC(N)=O [Peptide 453] |
| 0.274 | 0.173 | 3.1 | CC(C)C[C@H](NC(=O)[C@H](Cc1c[nH]c2ccccc12)NC(=O)[C@H](CCCNC(=N)N)NC(=O)[C@@H](NC(=O)[C@H](Cc1ccccc1)NC(=O)[C@H](CC(=O)O)NC(=O)[C@H](CCC(N)=O)NC(=O)[C@H](C)NC(=O)[C@H](CCCNC(=N)N)NC(=O)[C@H](CCCCNC(=O)COCCOCCNC(=O)COCCOCCNC(=O)CC[C@H](NC(=O)CCCCCCCCCCCCCCCCCCC(=O)O)C(=O)O)NC(=O)[C@H](CCCCN)NC(=O)[C@H](CC(=O)O)NC(=O)[C@H](CC(C)C)NC(=O)[C@](C)(Cc1ccccc1)NC(=O)[C@H](CCCCN)NC(=O)[C@H](CO)NC(=O)[C@@H](NC(=O)[C@H](CC(=O)O)NC(=O)[C@H](CO)NC(=O)[C@@H](NC(=O)[C@H](Cc1ccccc1)NC(=O)[C@@H](NC(=O)CNC(=O)[C@H](CCC(N)=O)NC(=O)C(C)(C)NC(=O)[C@@H](N)Cc1c[nH]cn1)[C@@H](C)O)[C@@H](C)O)C(C)C)C(C)C)C(=O)N[C@@H](CCC(=O)O)C(=O)N[C@@H](C)C(=O)NC(C)(C)C(=O)NCC(N)=O [Peptide 454] (H-H[Aib]QGTFTSDVSK[αMeF]LDKK([AEEA-AEEA-γGlu-C20 diacid])RAQDFVRWLEA[Aib]G-NH2) |
| 0.114 | 0.127 | 1.8 | CC(C)C[C@H](NC(=O)[C@H](Cc1c[nH]c2ccccc12)NC(=O)[C@H](CCCNC(=N)N)NC(=O)[C@@H](NC(=O)[C@H](Cc1ccccc1)NC(=O)[C@H](CC(=O)O)NC(=O)[C@H](CCC(N)=O)NC(=O)[C@H](C)NC(=O)[C@H](CCCNC(=N)N)NC(=O)[C@H](CCCCNC(=O)COCCOCCNC(=O)COCCOCCNC(=O)CC[C@H](NC(=O)CC[C@H](NC(=O)CCCCCCCCCCCCCCCCCCC(=O)O)C(=O)O)C(=O)O)NC(=O)[C@H](CCCCN)NC(=O)[C@H](CC(=O)O)NC(=O)[C@H](CC(C)C)NC(=O)[C@](C)(Cc1ccccc1)NC(=O)[C@H](CCCCN)NC(=O)[C@H](CO)NC(=O)[C@@H](NC(=O)[C@H](CC(=O)O)NC(=O)[C@H](CO)NC(=O)[C@@H](NC(=O)[C@H](Cc1ccccc1)NC(=O)[C@@H](NC(=O)CNC(=O)[C@H](CCC(N)=O)NC(=O)C(C)(C)NC(=O)[C@@H](N)Cc1c[nH]cn1)[C@@H](C)O)[C@@H](C)O)C(C)C)C(C)C)C(=O)N[C@@H](CC(C)C)C(=O)NC(C)(C)C(=O)N[C@@H](CCC(=O)O)C(N)=O [Peptide 455] (H-H[Aib]QGTFTSDVSK[αMeF]LDKK([AEEA-AEEA-γGlu-γGlu-C20 diacid])RAQDFVRWLL[Aib]E-NH2) |
| 0.0803 | 0.133 | 1.2 | CC(C)C[C@H](NC(=O)[C@H](Cc1c[nH]c2ccccc12)NC(=O)[C@H](CCCNC(=N)N)NC(=O)[C@@H](NC(=O)[C@H](Cc1ccccc1)NC(=O)[C@H](CC(=O)O)NC(=O)[C@H](CCC(N)=O)NC(=O)[C@H](C)NC(=O)[C@H](CCCNC(=N)N)NC(=O)[C@H](CCCCNC(=O)COCCOCCNC(=O)COCCOCCNC(=O)CC[C@H](NC(=O)CCCCCCCCCCCCCCCCCCC(=O)O)C(=O)O)NC(=O)[C@H](CCCNC(=N)N)NC(=O)[C@H](CC(=O)O)NC(=O)[C@H](CC(C)C)NC(=O)[C@](C)(Cc1ccccc1)NC(=O)[C@H](CCCCN)NC(=O)[C@H](CO)NC(=O)[C@@H](NC(=O)[C@H](CC(=O)O)NC(=O)[C@H](CO)NC(=O)[C@@H](NC(=O)[C@H](Cc1ccccc1)NC(=O)[C@@H](NC(=O)CNC(=O)[C@H](CCC(N)=O)NC(=O)C(C)(C)NC(=O)[C@@H](N)Cc1c[nH]cn1)[C@@H](C)O)[C@@H](C)O)C(C)C)C(C)C)C(=O)N[C@@H](CC(C)C)C(=O)NC(C)(C)C(=O)N[C@@H](CCC(=O)O)C(N)=O [Peptide 456] (H-H[Aib]QGTFTSDVSK[αMeF]LDRK([AEEA-AEEA-γGlu-C20 diacid])RAQDFVRWLL[Aib]E-NH2; N-terminus assumed) |
| 0.203 | 0.109 | 3.7 | CC(C)C[C@H](NC(=O)[C@H](Cc1c[nH]c2ccccc12)NC(=O)[C@H](CCC(N)=O)NC(=O)[C@@H](NC(=O)[C@H](Cc1ccccc1)NC(=O)[C@H](CC(=O)O)NC(=O)[C@H](CCCNC(=N)N)NC(=O)[C@H](C)NC(=O)[C@H](CCCNC(=N)N)NC(=O)[C@H](CCCCNC(=O)COCCOCCNC(=O)COCCOCCNC(=O)CC[C@H](NC(=O)CCCCCCCCCCCCCCCCCCC(=O)O)C(=O)O)NC(=O)[C@@H](NC(=O)[C@H](CC(=O)O)NC(=O)[C@H](CC(C)C)NC(=O)[C@](C)(Cc1ccccc1)NC(=O)[C@H](CCCCN)NC(=O)[C@H](CO)NC(=O)[C@@H](NC(=O)[C@H](CC(=O)O)NC(=O)[C@H](CO)NC(=O)[C@@H](NC(=O)[C@H](Cc1ccccc1)NC(=O)[C@@H](NC(=O)CNC(=O)[C@H](CCC(N)=O)NC(=O)C(C)(C)NC(=O)[C@@H](N)Cc1c[nH]cn1)[C@@H](C)O)[C@@H](C)O)C(C)C)[C@@H](C)O)C(C)C)C(=O)N[C@@H](CC(C)C)C(=O)N[C@@H](CCC(=O)O)C(=O)NC(C)(C)C(=O)NCC(N)=O [Peptide 457] |
| 0.385 | 0.114 | 6.7 | CC(C)C[C@H](NC(=O)[C@H](Cc1c[nH]c2ccccc12)NC(=O)[C@H](CCC(N)=O)NC(=O)[C@@H](NC(=O)[C@H](Cc1ccccc1)NC(=O)[C@H](CC(=O)O)NC(=O)[C@H](CCCNC(=N)N)NC(=O)[C@H](C)NC(=O)[C@H](CCCNC(=N)N)NC(=O)[C@H](CCCCNC(=O)COCCOCCNC(=O)COCCOCCNC(=O)CC[C@H](NC(=O)CC[C@H](NC(=O)CCCCCCCCCCCCCCCCCCC(=O)O)C(=O)O)C(=O)O)NC(=O)[C@@H](NC(=O)[C@H](CC(=O)O)NC(=O)[C@H](CC(C)C)NC(=O)[C@](C)(Cc1ccccc1)NC(=O)[C@H](CCCCN)NC(=O)[C@H](CO)NC(=O)[C@@H](NC(=O)[C@H](CC(=O)O)NC(=O)[C@H](CO)NC(=O)[C@@H](NC(=O)[C@H](Cc1ccccc1)NC(=O)[C@@H](NC(=O)CNC(=O)[C@H](CCC(N)=O)NC(=O)C(C)(C)NC(=O)[C@@H](N)Cc1c[nH]cn1)[C@@H](C)O)[C@@H](C)O)C(C)C)[C@@H](C)O)C(C)C)C(=O)N[C@@H](CC(C)C)C(=O)N[C@@H](CCC(=O)O)C(=O)NC(C)(C)C(=O)NCC(N)=O [Peptide 458] |
